# Data taken from patent US10947213B1 (Merck Patent GmbH, priority 2015, dated 2021).
# Where a name gives a salt, the structure may show the parent alone.
# Target: T1, TLR7/NFKb HEK cells (Homo sapiens, UniProt Q9NYK1)
# T1 construct: expressed in transfected cells; host or cells: HEK cells (TLR7/NFKb reporter line)
# T1 sequence (Q9NYK1 27-1049): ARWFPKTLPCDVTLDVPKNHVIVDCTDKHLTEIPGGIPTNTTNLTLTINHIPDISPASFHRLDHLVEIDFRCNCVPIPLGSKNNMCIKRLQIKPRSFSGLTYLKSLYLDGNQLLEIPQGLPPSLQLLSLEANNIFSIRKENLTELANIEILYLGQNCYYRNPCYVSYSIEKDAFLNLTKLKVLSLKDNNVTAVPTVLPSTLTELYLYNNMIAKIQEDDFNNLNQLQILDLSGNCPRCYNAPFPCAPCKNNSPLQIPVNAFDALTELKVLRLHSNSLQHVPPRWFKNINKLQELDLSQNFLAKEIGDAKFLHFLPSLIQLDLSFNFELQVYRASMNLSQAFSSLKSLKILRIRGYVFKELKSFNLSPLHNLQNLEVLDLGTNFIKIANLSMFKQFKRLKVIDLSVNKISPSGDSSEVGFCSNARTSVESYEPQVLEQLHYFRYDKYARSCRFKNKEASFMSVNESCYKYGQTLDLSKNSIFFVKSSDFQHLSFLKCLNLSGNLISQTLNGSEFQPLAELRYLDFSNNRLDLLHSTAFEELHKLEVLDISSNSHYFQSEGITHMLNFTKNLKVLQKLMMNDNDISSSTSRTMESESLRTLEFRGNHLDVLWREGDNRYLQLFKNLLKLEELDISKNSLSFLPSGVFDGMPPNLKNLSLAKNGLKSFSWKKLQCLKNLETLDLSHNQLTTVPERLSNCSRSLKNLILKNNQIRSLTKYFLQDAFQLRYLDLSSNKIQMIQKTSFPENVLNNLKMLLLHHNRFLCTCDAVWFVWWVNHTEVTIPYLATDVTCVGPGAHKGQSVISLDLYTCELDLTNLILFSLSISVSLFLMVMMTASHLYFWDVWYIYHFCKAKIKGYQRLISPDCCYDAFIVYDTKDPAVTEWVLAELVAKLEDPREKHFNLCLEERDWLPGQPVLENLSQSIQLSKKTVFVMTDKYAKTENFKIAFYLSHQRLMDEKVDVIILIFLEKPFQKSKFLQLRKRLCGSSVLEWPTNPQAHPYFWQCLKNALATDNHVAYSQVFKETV
# Experiment: HEK Cell Assay (TLR7/NFKb reporter, Steady-Glo luciferase readout)
# Assay type: cell-based
# Details: 30 min compound preincubation, then R*48 agonist for 5 hours, read-out: Potency
# Procedure: Example 142: HEK Cell Assay
# Into 384 CulturePlates (Corning 3707) was placed 5000 c/w of TLR7/NFKb HEK cells in 30 uL DMEM without Phenil red (gibco #31053) and 10% i.a. FCS and 2 mM L-ZGLutamin. The cells were incubated for 24 h at 37° C., 10% carbon dioxide and 90% relative humidity. 3 uL of controls, standards, and compounds were dispensed into wells, incubated for 30 min then 3 uL of R*48 agonist in 20 mM Hepes was added. After incubation for 5 hours, they were allowed to stand at room temperature for 15 min. To this was added 10 uL of Steady-Glo substrate reagent and shake assay plate for 5 min at 1500 rpm. The assay plate was allowed to sit for 30 min at room temperature and then the plate was read on EnVision.
row,IC50,SMILES
1,1000 to 10000 nM,"O=C(NC1CN(c2ccc(C(F)(F)F)c3ncccc23)CC(F)(F)C1)C(O)C1CC1 (centres unmarked) [Compound 513, 2-Cyclopropyl-N-[5,5-difluoro-1-(8-trifluoromethyl-quinolin-5-yl)-piperidin-3-yl]-2-hydroxy-acetamide]"
2,1000 to 10000 nM,"N#Cc1ccc(N2C[C@H](NC(=O)N3C[C@@H](F)[C@@H](F)C3)C[C@H](C(F)(F)F)C2)c2cccnc12 [Compound 581, (3R,4S)-3,4-Difluoro-pyrrolidine-1-carboxylic Acid [(3R,5S)-1-(8-cyano-quinolin-5-yl)-5-trifluoromethyl-piperidin-3-yl]-amide]"
3,1000 to 10000 nM,"C[C@H]1C[C@@H](NCC#N)CN(c2ccnc3nccnc23)C1 [Compound 39, 2-((3R,5S)-5-methyl-1-(pyrido[2,3-b]pyrazin-8-yl)piperidin-3-ylamino)acetonitrile hydrochloride]"
4,< 1000 nM,"C[C@H]1C[C@@H](NC(=O)CC(C)(C)C)CN(c2ccc(C#N)c3nccnc23)C1 [Compound 40, N-((3R,5S)-1-(8-cyanoquinoxalin-5-yl)-5-methylpiperidin-3-yl)-3,3-dimethylbutanamide]"
5,1000 to 10000 nM,"C[C@H]1C[C@@H](NC(=O)CC2CNC2)CN(c2ccc(C(F)F)c3ncccc23)C1 [Compound 312, 2-(azetidin-3-yl)-N-[(3R,5S)-1-[8-(difluoromethyl)quinolin-5-yl]-5-methylpiperidin-3-yl]acetamide]"
6,1000 to 10000 nM,"C[C@@H]1CN(c2ccnc3nccnc23)C[C@H](CN2CCN(C)CC2)O1 [Compound 47, (2R,6S)-2-methyl-6-((4-methylpiperazin-1-yl)methyl)-4-(pyrido[2,3-b]pyrazin-8-yl)morpholine]"
7,< 1000 nM,"C[C@H]1C[C@@H](NC(=O)C(N)C(F)(F)F)CN(c2ccc(C(F)(F)F)c3ncccc23)C1 (single isomer, unassigned) [Compound 198]"
8,1000 to 10000 nM,"CC1(C)C[C@@H](NC(=O)CC(F)(F)F)CN(c2ccc(C#N)c3nccnc23)C1 [Compound 220, N-[(3R)-1-(8-cyanoquinoxalin-5-yl)-5,5-dimethylpiperidin-3-yl]-3,3,3-trifluoropropanamide]"
9,1000 to 10000 nM,"Cc1ncc(N2C[C@@H](C)C[C@@H](NC(=O)[C@@H](O)C3CC3)C2)c2cccnc12 [Compound 559, (S)-2-Cyclopropyl-2-hydroxy-N-[(3R,5S)-5-methyl-1-(8-methyl-[1,7]naphthyridin-5-yl)-piperidin-3-yl]-acetamide]"
10,1000 to 10000 nM,"N#Cc1ccc(N2CC(NC(=O)C(N)C(F)(F)F)CC(C3CC3)C2)c2nccnc12 (single isomer, unassigned) [Compound 178]"
11,< 1000 nM,"C[C@@H]1CN(c2ccnc3nccnc23)C[C@H](CN2CCC(N3CCCCC3)CC2)O1 [Compound 58, (2S,6R)-2-(1,4′-bipiperidin-1′-ylmethyl)-6-methyl-4-(pyrido[2,3-b]pyrazin-8-yl)morpholine]"
12,> 10000 nM,"CNCC(=O)N[C@@H]1C[C@H](C)CN(c2ccnc3nccnc23)C1 [Compound 29, N-((3R,5S)-5-methyl-1-(pyrido[2,3-b]pyrazin-8-yl)piperidin-3-yl)-2-(methylamino)acetamide]"
13,> 10000 nM,"C[C@@H]1CN(c2ncc(F)c3nccnc23)C[C@H](C)O1 [Compound 455, cis-5-(2,6-Dimethyl-morpholin-4-yl)-8-fluoro-pyrido[3,4-b]pyrazine]"
14,< 1000 nM,"C[C@H]1C[C@@H](NC(=O)C2CC(F)(F)C2)CN(c2ccc(C(F)(F)F)c3ncccc23)C1 [Compound 247, 3,3-difluoro-N-[(3R,5S)-5-methyl-1-[8-(trifluoromethyl)quinolin-5-yl]piperidin-3-yl]cyclobutane-1-carboxamide]"
15,< 1000 nM,"C[C@@H]1CN(c2ccc(C#N)c3nccnc23)C[C@H](C)O1 [Compound 44, 8-((2R,6S)-2,6-dimethylmorpholino)quinoxaline-5-carbonitrile]"
16,< 1000 nM,"C[C@H]1C[C@@H](NC(=O)CC2CN(C)C2)CN(c2ccc(C(F)(F)F)c3ncccc23)C1 [Compound 360, N-[(3R,5S)-5-methyl-1-[8-(trifluoromethyl)quinolin-5-yl]piperidin-3-yl]-2-(1-methylazetidin-3-yl)acetamide]"
17,< 1000 nM,"N#Cc1ccc(N2CC(NC(=O)CC3(N)CCCCC3)CC(C(F)(F)F)C2)c2cccnc12 (single isomer, unassigned) [Compound 497]"
18,1000 to 10000 nM,"NC1CN(c2ccc(C(F)(F)F)c3ncccc23)CC(F)(F)C1 (single isomer, unassigned) [Compound 528]"
19,1000 to 10000 nM,"c1ccc2c(N3CCC(COCCN4CCCCC4)CC3)ccnc2c1 [Compound 6, 4-(4-[[2-(piperidin-1-yl)ethoxy]methyl]piperidin-1-yl)quinoline]"
20,< 1000 nM,C[C@H]1C[C@@H](NCC(N)=O)CN(c2ccc(C(F)(F)F)c3ncccc23)C1 [Compound 570]
21,1000 to 10000 nM,"CCN(CC)C1CCN(CC2CCN(c3ccnc4ccccc34)CC2)CC1 [Compound 5, N,N-diethyl-1-((1-(quinolin-4-yl)piperidin-4-yl)methyl)piperidin-4-amine]"
22,< 1000 nM,"C[C@H]1C[C@@H](NC2CCN(C)C2=O)CN(c2ccc(C#N)c3nccnc23)C1 (single isomer, unassigned) [Compound 124]"
23,< 1000 nM,"C[C@H]1C[C@@H](NC(=O)CN2CCOCC2)CN(c2ccc(C(F)(F)F)c3ncccc23)C1 [Compound 239, N-[(3R,5S)-5-methyl-1-[8-(trifluoromethyl)quinolin-5-yl]piperidin-3-yl]-2-(morpholin-4-yl)acetamide]"
24,1000 to 10000 nM,"C[C@@H]1CN(c2ccnc3nccnc23)C[C@H](C(=O)N[C@@H]2CCCNC2)O1 [Compound 64, (2R,6R)-6-methyl-N—((R)-piperidin-3-yl)-4-(pyrido[2,3-b]pyrazin-8-yl)morpholine-2-carboxamide]"
25,< 1000 nM,"N#Cc1ccc(N2C[C@@H](NC(=O)CC(F)(F)F)C[C@@H](C(F)(F)F)C2)c2cccnc12 (relative stereo) [Compound 428, cis-N-[1-(8-Cyano-quinolin-5-yl)-5-trifluoromethyl-piperidin-3-yl]-3,3,3-trifluoro-propionamide]"
26,< 1000 nM,"CC(C)[C@@H](O)C(=O)N[C@@H]1C[C@H](C)CN(c2ccc(C#N)c3nccnc23)C1 [Compound 21, (R)—N-((3R,5S)-1-(8-cyanoquinoxalin-5-yl)-5-methylpiperidin-3-yl)-2-hydroxy-3-methylbutanamide]"
27,< 1000 nM,"C[C@@H]1C[C@@H](C(=O)NCC2CCN(C)CC2)CN(c2ccc(C(F)(F)F)c3ncccc23)C1 (relative stereo) [Compound 548, trans-5-Methyl-1(8-trifluoromethyl-quinolin-5-yl)-piperidine-3-carboxylic acid (1-methyl-piperidin-4-ylmethyl)-amide]"
28,< 1000 nM,"C[C@H]1C[C@@H](NC(=O)C(N)C2CC2)CN(c2ccc(C#N)c3nccnc23)C1 (stereo partly drawn) [Compound 268, 2-amino-N-[(3R,5S)-1-(8-cyanoquinoxalin-5-yl)-5-methylpiperidin-3-yl]-2-cyclopropylacetamide]"

row,SMILES,IC50
1,"C[C@H]1C[C@@H](NC(=O)COC(C)(C)C)CN(c2ccc(C#N)c3nccnc23)C1 [Compound 163, 2-(tert-butoxy)-N-[(3R,5S)-1-(8-cyanoquinoxalin-5-yl)-5-methylpiperidin-3-yl]acetamide]",< 1000 nM
